Measured values published in ChEMBL document CHEMBL6096703 (J Med Chem, 2025).
Active and inactive are the calls of the source. The calls are words filed in the database; no cut-off is given here.

Key:
[1] = target: Poly [ADP-ribose] polymerase 1 (Homo sapiens, UniProt P09874); test: Inhibition of PARP1 (unknown origin) at 1 nM preincubated with compound for 10 mins followed by DNA and NAD+ addition and measured after 60 mins by chemiluminescence based envision reader analysis relative to control; details: time 70.0 min
Poly [ADP-ribose] polymerase 1, sequence (P09874 whole entry): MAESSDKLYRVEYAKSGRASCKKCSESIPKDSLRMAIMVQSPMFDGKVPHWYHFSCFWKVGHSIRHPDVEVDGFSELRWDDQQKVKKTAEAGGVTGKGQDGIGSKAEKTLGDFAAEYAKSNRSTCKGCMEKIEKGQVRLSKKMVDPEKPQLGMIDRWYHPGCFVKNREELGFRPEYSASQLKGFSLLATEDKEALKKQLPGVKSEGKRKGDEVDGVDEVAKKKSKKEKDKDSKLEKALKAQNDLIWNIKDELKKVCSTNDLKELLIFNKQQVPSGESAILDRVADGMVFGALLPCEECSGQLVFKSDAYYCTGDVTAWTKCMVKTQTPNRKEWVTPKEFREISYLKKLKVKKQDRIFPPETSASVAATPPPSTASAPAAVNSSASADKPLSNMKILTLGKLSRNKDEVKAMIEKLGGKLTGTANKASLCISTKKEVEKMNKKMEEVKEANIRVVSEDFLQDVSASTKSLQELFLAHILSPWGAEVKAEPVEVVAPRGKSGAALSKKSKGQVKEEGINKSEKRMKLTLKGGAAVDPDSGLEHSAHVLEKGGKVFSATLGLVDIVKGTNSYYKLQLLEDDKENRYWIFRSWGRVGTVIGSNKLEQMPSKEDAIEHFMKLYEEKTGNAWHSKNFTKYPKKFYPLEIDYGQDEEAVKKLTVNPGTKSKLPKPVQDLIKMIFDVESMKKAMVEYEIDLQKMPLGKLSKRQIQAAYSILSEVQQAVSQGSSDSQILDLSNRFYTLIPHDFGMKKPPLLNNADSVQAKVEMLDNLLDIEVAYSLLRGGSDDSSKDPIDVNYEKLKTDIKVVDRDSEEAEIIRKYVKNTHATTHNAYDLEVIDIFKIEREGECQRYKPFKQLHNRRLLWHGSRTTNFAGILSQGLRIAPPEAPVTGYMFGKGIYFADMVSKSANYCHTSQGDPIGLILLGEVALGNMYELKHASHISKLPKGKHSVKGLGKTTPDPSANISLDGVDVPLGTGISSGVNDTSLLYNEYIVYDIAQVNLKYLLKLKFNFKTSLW

[2] = Clearance in male Balb/c mouse at 1 mg/kg, iv measured upto 96 hrs by LC-MS/MS analysis; assay type: ADME, organism-based; details: male, Balb/c, in vivo
[3] = Acute toxicity in Kunming mouse assessed as change in cellular morphology of kidney at 100 mg/kg administered once a day via gavage for 14 days by H and E staining based analysis; assay type: organism-based; details: in vivo, po, 336 h, time 14 day
[4] = Half life in male Balb/c mouse at 1 mg/kg, iv measured upto 96 hrs by LC-MS/MS analysis; assay type: ADME, organism-based; details: male, Balb/c, in vivo
[5] = Sub-acute toxicity in Kunming mouse assessed as change LDH2 level at 100 to 300 mg/kg administered via gavage for 14 days; assay type: organism-based; details: in vivo, po, 336 h, dose 100-300 mg/kg, time 14 day
[6] = Sub-acute toxicity in Kunming mouse assessed as change ALB2 level at 100 to 300 mg/kg administered via gavage for 14 days; assay type: organism-based; details: in vivo, po, 336 h, dose 100-300 mg/kg, time 14 day
MDA-MB-436 [7] = test: Antiproliferative activity against human MDA-MB-436 cells assessed as reduction in cell viability incubated for 7 days by CCK-8 assay; assay type: functional, cell-based; details: MDA-MB-436, 168 h
[8] = Acute toxicity in Kunming mouse assessed as change in cellular morphology of spleen at 100 mg/kg administered once a day via gavage for 14 days by H and E staining based analysis; assay type: organism-based; details: in vivo, po, 336 h, time 14 day
[9] = Drug concentration in brain of male Balb/c mouse at 10 mg/kg, po measured at 6 hr postdose; assay type: ADME, organism-based; details: read-out: Ct
[10] = Sub-acute toxicity in Kunming mouse assessed as change LDH2 level at 30 to 100 mg/kg administered via gavage once a day for 14 days; assay type: organism-based; details: in vivo, po, 336 h, dose 30-100 mg/kg, time 14 day
[11] = Acute toxicity in Kunming mouse assessed as change in cellular morphology of heart at 100 mg/kg administered once a day via gavage for 14 days by H and E staining based analysis; assay type: organism-based; details: in vivo, po, 336 h, time 14 day
[12] = Tmax in male Balb/c mouse at 1 mg/kg, po measured upto 96 hrs by LC-MS/MS analysis; assay type: ADME, organism-based; details: in vivo
[13] = AUC(0 to t) in male Balb/c mouse at 1 mg/kg, po measured upto 96 hrs by LC-MS/MS analysis; assay type: ADME, organism-based; details: male, Balb/c, in vivo
[14] = Sub-acute toxicity in Kunming mouse assessed as change ALB2 level at 30 to 100 mg/kg administered via gavage once a day for 14 days; assay type: organism-based; details: in vivo, po, 336 h, dose 30-100 mg/kg, time 14 day
[15] = Oral bioavailability in male Balb/c mouse at 1 mg/kg measured upto 96 hrs by LC-MS/MS analysis; assay type: ADME, organism-based; details: in vivo
[16] = Drug concentration in brain of male Balb/c mouse at 10 mg/kg, po measured at 1 hr postdose; assay type: ADME, organism-based; details: read-out: Ct
[17] = Tmax in male Balb/c mouse at 1 mg/kg, iv measured upto 96 hrs by LC-MS/MS analysis; assay type: ADME, organism-based; details: in vivo
[18] = Sub-acute toxicity in Kunming mouse assessed as change ASTL level at 30 to 100 mg/kg administered via gavage once a day for 14 days; assay type: organism-based; details: in vivo, po, 336 h, dose 30-100 mg/kg, time 14 day
[19] = Sub-acute toxicity in Kunming mouse assessed as change ASTL level at 100 to 300 mg/kg administered via gavage for 14 days; assay type: organism-based; details: in vivo, po, 336 h, dose 100-300 mg/kg, time 14 day
[20] = Cmax in male Balb/c mouse at 1 mg/kg, po measured upto 96 hrs by LC-MS/MS analysis; assay type: ADME, organism-based; details: in vivo
[21] = Sub-acute toxicity in Kunming mouse assessed as change CK level at 100 to 300 mg/kg administered via gavage for 14 days; assay type: organism-based; details: in vivo, po, 336 h, dose 100-300 mg/kg, time 14 day
[22] = Acute toxicity in Kunming mouse assessed as change in spleen structure at 300 mg/kg administered via gavage for 14 days by H and E staining based analysis; assay type: organism-based; details: in vivo, po, 336 h, time 14 day
MDA-MB-436 [23] = test: Antitumor activity against human MDA-MB-436 cells xenografted in female NOD/SCID mouse assessed as tumor regression rate at 1 mg/kg, po administered once every other day for 28 days relative to control; assay type: functional; details: time 28.0 day
[24] = target: Poly [ADP-ribose] polymerase 2 (Homo sapiens, UniProt Q9UGN5); test: Inhibition of PARP2 (unknown origin) at 1 uM preincubated with compound for 10 mins followed by DNA and NAD+ addition and measured after 60 mins by chemiluminescence based envision reader analysis relative to control; details: time 70.0 min
Poly [ADP-ribose] polymerase 2, sequence (Q9UGN5 whole entry): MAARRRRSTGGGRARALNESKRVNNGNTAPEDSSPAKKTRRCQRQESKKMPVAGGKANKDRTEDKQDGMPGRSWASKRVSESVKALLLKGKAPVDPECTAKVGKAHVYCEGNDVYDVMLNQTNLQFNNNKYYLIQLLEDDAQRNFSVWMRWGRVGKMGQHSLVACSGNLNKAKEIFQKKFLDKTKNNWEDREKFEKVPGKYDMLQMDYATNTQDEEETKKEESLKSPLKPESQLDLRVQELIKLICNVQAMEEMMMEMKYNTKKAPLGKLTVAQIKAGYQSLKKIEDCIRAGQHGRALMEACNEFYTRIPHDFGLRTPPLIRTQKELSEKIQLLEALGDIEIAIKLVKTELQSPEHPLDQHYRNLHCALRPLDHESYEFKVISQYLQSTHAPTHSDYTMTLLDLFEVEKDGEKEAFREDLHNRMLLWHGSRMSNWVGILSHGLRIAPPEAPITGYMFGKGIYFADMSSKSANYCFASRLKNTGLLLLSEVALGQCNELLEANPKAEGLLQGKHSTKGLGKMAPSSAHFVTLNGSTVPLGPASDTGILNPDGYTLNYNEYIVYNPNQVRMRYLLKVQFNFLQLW

[25] = Cmax in male Balb/c mouse at 1 mg/kg, iv measured upto 96 hrs by LC-MS/MS analysis; assay type: ADME, organism-based; details: in vivo
[26] = Apparent volume of distribution in male Balb/c mouse at 1 mg/kg, iv measured upto 96 hrs by LC-MS/MS analysis; assay type: ADME, organism-based; details: male, Balb/c, in vivo, read-out: Vz
[27] = Sub-acute toxicity in Kunming mouse assessed as change CREA2 level at 100 to 300 mg/kg administered via gavage for 14 days; assay type: organism-based; details: in vivo, po, 336 h, dose 100-300 mg/kg, time 14 day
[28] = Sub-acute toxicity in Kunming mouse assessed as change CREA2 level at 30 to 100 mg/kg administered via gavage once a day for 14 days; assay type: organism-based; details: in vivo, po, 336 h, dose 30-100 mg/kg, time 14 day
[29] = Acute toxicity in Kunming mouse assessed as change in lung structure at 300 mg/kg administered via gavage for 14 days by H and E staining based analysis; assay type: organism-based; details: in vivo, po, 336 h, time 14 day
[30] = Sub-acute toxicity in Kunming mouse assessed as change ALTL level at 100 to 300 mg/kg administered via gavage for 14 days; assay type: organism-based; details: in vivo, po, 336 h, dose 100-300 mg/kg, time 14 day
[31] = Clearance in male Balb/c mouse at 1 mg/kg, po measured upto 96 hrs by LC-MS/MS analysis; assay type: ADME, organism-based; details: male, Balb/c, in vivo
[32] = Sub-acute toxicity in Kunming mouse assessed as change UREAL level at 30 to 100 mg/kg administered via gavage once a day for 14 days; assay type: organism-based; details: in vivo, po, 336 h, dose 30-100 mg/kg, time 14 day
[33] = Sub-acute toxicity in Kunming mouse assessed as change CK level at 30 to 100 mg/kg administered via gavage once a day for 14 days; assay type: organism-based; details: in vivo, po, 336 h, dose 30-100 mg/kg, time 14 day
[34] = Acute toxicity in Kunming mouse assessed as change in cellular morphology of liver at 100 mg/kg administered once a day via gavage for 14 days by H and E staining based analysis; assay type: organism-based; details: in vivo, po, 336 h, time 14 day
[35] = AUC(0 to t) in male Balb/c mouse at 1 mg/kg, iv measured upto 96 hrs by LC-MS/MS analysis; assay type: ADME, organism-based; details: male, Balb/c, in vivo
[36] = Sub-acute toxicity in Kunming mouse assessed as change ALTL level at 30 to 100 mg/kg administered via gavage once a day for 14 days; assay type: organism-based; details: in vivo, po, 336 h, dose 30-100 mg/kg, time 14 day
[37] = Drug concentration in blood of male Balb/c mouse at 10 mg/kg, po measured at 6 hr postdose; assay type: ADME, organism-based; details: read-out: Ct
MDA-MB-436 [38] = test: Antitumor activity against luciferase tagged human MDA-MB-436 cells xenografted in female NOD-SCID mouse assessed as median survival time at 3 mg/kg, po administered once a day for 34 days; assay type: functional; details: time 34 day
[39] = Acute toxicity in Kunming mouse assessed as change in liver structure at 300 mg/kg administered via gavage for 14 days by H and E staining based analysis; assay type: organism-based; details: in vivo, po, 336 h, time 14 day
[40] = Drug concentration in blood of male Balb/c mouse at 10 mg/kg, po measured at 1 hr postdose; assay type: ADME, organism-based; details: read-out: Ct
[41] = Acute toxicity in Kunming mouse assessed as change in kidney structure at 300 mg/kg administered via gavage for 14 days by H and E staining based analysis; assay type: organism-based; details: in vivo, po, 336 h, time 14 day
[42] = Acute toxicity in Kunming mouse assessed as change in heart structure at 300 mg/kg administered via gavage for 14 days by H and E staining based analysis; assay type: organism-based; details: in vivo, po, 336 h, time 14 day
[43] = Apparent volume of distribution in male Balb/c mouse at 1 mg/kg, po measured upto 96 hrs by LC-MS/MS analysis; assay type: ADME, organism-based; details: in vivo
[44] = Sub-acute toxicity in Kunming mouse assessed as change UREAL level at 100 to 300 mg/kg administered via gavage for 14 days; assay type: organism-based; details: in vivo, po, 336 h, dose 100-300 mg/kg, time 14 day
[45] = Half life in male Balb/c mouse at 1 mg/kg, po measured upto 96 hrs by LC-MS/MS analysis; assay type: ADME, organism-based; details: male, Balb/c, in vivo
[46] = Acute toxicity in Kunming mouse assessed as change in cellular morphology of lung at 100 mg/kg administered once a day via gavage for 14 days by H and E staining based analysis; assay type: organism-based; details: in vivo, po, 336 h, time 14 day

With `CNC(=O)c1ccc(N2CCN(Cc3ccc4nc(C)c(=O)[nH]c4c3F)CC2)c(F)n1` [AZD-9574] as the compound, how does the inhibition [1] read?
The inhibition was 63.7%.

What about the clearance [2] of the same compound?
The clearance was 3.17 mL/min/kg.

What about the Activity [3] of the same compound?
Its Activity is “Non-toxic”.

What about the half-life [4] of the same compound?
Its half-life is 14.7 h.

What about the Activity [5] of the same compound?
The Activity was “Non-toxic”.

What about the Activity [6] of the same compound?
Its Activity is “Non-toxic”.

And the IC50 (MDA-MB-436 [7])?
The IC50 was 6.7 nM.

And the Activity [8]?
Its Activity is “Non-toxic”.

What about the concentration at 6 h [9] of the same compound?
Its concentration at 6 h is 48 ng/g.

And the Activity [10]?
The Activity was “Non-toxic”.

What about the Activity [11] of the same compound?
The Activity was “Non-toxic”.

What about the Tmax [12] of the same compound?
Its Tmax is 0.33 h.

And the AUC(0-t) at 96 h [13]?
The AUC(0-t) at 96 h was 4180 ng·h/mL.

What about the Activity [14] of the same compound?
Its Activity is “Non-toxic”.

And the bioavailability [15]?
The bioavailability was 85.5%.

What about the concentration at 1 h [16] of the same compound?
The concentration at 1 h was 412 ng/g.

And the Tmax [17]?
Its Tmax is 4.8 min.

And the Activity [18]?
The Activity was “Non-toxic”.

And the Activity [19]?
Its Activity is “Non-toxic”.

And the Cmax [20]?
Its Cmax is 594 ng/mL.

What about the Activity [21] of the same compound?
The Activity was “Non-toxic”.

And the Activity [22]?
The Activity was “Non-toxic”.

What about the Activity (MDA-MB-436 [23]) of the same compound?
The Activity was “inactive”.

And the inhibition [24]?
Its inhibition is 38.1%.

And the Cmax [25]?
Its Cmax is 941 ng/mL.

What about the Vd [26] of the same compound?
Its Vd is 3.64 L/kg.

And the Activity [27]?
The Activity was “Non-toxic”.

What about the Activity [28] of the same compound?
The Activity was “Non-toxic”.

And the Activity [29]?
The Activity was “Non-toxic”.

And the Activity [30]?
Its Activity is “Non-toxic”.

What about the CL/F [31] of the same compound?
The CL/F was 4 mL/min/kg.

What about the Activity [32] of the same compound?
Its Activity is “Non-toxic”.

And the Activity [33]?
The Activity was “Non-toxic”.

What about the Activity [34] of the same compound?
The Activity was “Non-toxic”.

What about the AUC(0-t) at 96 h [35] of the same compound?
Its AUC(0-t) at 96 h is 4890 ng·h/mL.

What about the Activity [36] of the same compound?
The Activity was “Non-toxic”.

What about the concentration at 6 h [37] of the same compound?
The concentration at 6 h was 186 ng/mL.

And the Survival (MDA-MB-436 [38])?
Its Survival is >65 days.

What about the Activity [39] of the same compound?
The Activity was “Non-toxic”.

What about the concentration at 1 h [40] of the same compound?
The concentration at 1 h was 3780 ng/mL.

And the Activity [41]?
The Activity was “Non-toxic”.

And the Activity [42]?
Its Activity is “Non-toxic”.

And the Vz [43]?
The Vz was 3.03 L/kg.

And the Activity [44]?
The Activity was “Non-toxic”.

What about the half-life [45] of the same compound?
Its half-life is 8.81 h.

And the Activity [46]?
Its Activity is “Non-toxic”.
